Test results as given in paper PMC5085761 (International Journal of Molecular Sciences, 2016).

Columns and labels:
Type in all cases: in vitro ADME
[1] = target: T1, human P-gp (Homo sapiens, UniProt P08183); test: Inhibition of tracer uptake in P-gp-expressing vesicles; conditions: tracer [3H]digoxin 1 µM
T1 construct: purchased GenoMembrane Co., Ltd. (Kanagawa, Japan); host or cells: Sf9
Experimental: For ABC transporters, experimental kits containing Sf9-derived vesicles with high expression levels of human P-gp, MRP4, BCRP, and each ABC transporter (including buffer, ATP/AMP solution, and glutathione) were purchased from GenoMembrane Co., Ltd. (Kanagawa, Japan).
Vesicular transport assays were carried out according to the manufacturer’s protocol. […] The reaction was started by suspending 50 μg of vesicles (10 μL) in 40 μL of the reaction buffer. After incubation for an appropriate period of time, the reaction was stopped by the addition of ice-cold stop buffer (40 mM MOPS-Tris and 70 mM KCl; pH 7.0), after which the solution was filtered through a 0.45 μm HA filter (Millipore Corp., Billerica, MA, USA) using suction, and was washed twice in 5 mL of ice-cold stop buffer. The radioactivity of the filter was measured with a Tri-Carb 2910TR liquid scintillation counter (PerkinElmer) using Ultima Gold (PerkinElmer). The amount of tracer uptake was normalized to the membrane protein amount described in the product information sheets.

[2] = target: T2, OCT2 (Homo sapiens, UniProt O15244); test: Inhibition of tracer uptake in OCT2-expressing cells; conditions: OCT2, tracer [14C]metformin 10 µM
T2 construct: host or cells: HEK293
T2 sequence (O15244 1-555): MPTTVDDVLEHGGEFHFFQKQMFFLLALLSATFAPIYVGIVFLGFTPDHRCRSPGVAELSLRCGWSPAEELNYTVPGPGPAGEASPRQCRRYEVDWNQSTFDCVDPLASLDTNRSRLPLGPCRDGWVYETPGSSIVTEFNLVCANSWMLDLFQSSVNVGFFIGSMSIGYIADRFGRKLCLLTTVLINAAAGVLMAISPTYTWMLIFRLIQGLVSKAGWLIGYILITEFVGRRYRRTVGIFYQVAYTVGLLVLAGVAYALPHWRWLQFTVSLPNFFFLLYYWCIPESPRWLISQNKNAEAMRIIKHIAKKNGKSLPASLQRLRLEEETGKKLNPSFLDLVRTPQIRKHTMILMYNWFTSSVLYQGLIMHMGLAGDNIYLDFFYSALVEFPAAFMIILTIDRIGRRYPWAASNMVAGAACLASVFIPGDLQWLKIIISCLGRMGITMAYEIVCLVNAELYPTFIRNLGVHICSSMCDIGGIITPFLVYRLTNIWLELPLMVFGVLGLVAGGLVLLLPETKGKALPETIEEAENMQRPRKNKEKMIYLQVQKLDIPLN

[3] = target: T3, OAT3 (Homo sapiens, UniProt Q8TCC7); test: [14C]fluciclovine uptake by OAT3-expressing cells; conditions: OAT3 cells vs mock cells
T3 construct: host or cells: HEK293
T3 sequence (Q8TCC7 1-542): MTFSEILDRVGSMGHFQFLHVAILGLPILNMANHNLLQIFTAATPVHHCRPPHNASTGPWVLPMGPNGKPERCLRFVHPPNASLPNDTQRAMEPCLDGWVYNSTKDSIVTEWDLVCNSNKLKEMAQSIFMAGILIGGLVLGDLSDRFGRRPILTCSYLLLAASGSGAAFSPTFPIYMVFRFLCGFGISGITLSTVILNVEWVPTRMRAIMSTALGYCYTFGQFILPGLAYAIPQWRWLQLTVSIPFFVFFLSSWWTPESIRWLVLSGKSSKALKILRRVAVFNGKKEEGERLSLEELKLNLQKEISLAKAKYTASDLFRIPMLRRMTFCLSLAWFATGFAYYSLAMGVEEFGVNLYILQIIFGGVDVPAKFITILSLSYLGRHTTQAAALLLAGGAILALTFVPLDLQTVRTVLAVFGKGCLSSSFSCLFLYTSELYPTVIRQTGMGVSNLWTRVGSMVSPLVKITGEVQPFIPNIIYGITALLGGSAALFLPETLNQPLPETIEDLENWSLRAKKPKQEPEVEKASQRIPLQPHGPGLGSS

T1 sequence (P08183 whole entry): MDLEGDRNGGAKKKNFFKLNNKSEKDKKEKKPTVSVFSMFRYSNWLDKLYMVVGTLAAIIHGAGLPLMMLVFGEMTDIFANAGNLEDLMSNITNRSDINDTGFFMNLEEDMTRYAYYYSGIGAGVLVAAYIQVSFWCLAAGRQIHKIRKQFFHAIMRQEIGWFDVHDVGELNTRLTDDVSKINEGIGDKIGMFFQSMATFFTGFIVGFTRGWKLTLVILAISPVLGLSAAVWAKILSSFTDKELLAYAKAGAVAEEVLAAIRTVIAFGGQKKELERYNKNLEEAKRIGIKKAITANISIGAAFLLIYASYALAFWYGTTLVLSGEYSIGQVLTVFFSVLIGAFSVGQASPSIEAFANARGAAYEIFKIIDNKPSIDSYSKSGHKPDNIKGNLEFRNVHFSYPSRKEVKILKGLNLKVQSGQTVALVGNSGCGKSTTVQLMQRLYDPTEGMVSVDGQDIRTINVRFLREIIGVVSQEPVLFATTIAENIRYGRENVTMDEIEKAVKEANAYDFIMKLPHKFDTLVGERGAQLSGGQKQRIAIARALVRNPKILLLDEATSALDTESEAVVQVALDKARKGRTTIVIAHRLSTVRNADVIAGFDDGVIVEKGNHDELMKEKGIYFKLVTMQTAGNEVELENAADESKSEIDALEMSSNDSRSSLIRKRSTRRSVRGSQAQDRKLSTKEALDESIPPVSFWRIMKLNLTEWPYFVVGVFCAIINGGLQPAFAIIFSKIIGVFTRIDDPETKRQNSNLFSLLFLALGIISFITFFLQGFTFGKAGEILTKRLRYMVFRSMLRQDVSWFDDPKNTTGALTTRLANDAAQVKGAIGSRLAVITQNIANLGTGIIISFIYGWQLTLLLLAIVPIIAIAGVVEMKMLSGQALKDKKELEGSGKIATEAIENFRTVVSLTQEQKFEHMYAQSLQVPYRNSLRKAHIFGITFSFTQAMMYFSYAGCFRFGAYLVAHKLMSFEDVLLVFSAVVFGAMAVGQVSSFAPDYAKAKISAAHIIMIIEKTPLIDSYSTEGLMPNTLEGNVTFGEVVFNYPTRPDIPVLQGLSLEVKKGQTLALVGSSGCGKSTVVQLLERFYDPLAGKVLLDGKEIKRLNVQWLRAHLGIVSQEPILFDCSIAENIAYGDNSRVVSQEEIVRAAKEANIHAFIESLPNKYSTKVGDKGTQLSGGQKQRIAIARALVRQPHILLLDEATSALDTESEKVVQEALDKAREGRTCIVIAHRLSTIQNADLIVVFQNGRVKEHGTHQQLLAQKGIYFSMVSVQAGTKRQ

IC50 [1] | IC50 [2] | SMILES | drug transporter-mediated uptake [3]
2.95 ± 2.56 mM | 8.95 ± 1.96 mM | N[C@]1(C(=O)O)C[C@@H](F)C1 [fluciclovine] | –
– | – | N[14C]1(C(=O)O)CC(F)C1 (stereo not drawn) [[^14C]fluciclovine, trans-1-amino-3-fluoro[1-^14C]cyclobutanecarboxylic acid] | negligible
